# Data reported in ChEMBL document CHEMBL5303304, “EUbOPEN Chemogenomics Library - IncuCyte” (2023).
# Columns and labels:
# Format in all cases: toxicity, cell-based
# U2OS = test: Incucyte cell viability with U2OS; conditions: human, 10 µM, compound concentration 10 uM
# Fibroblast = test: Incucyte cell viability with human fibroblast; conditions: 10 µM, compound concentration 10 uM
# HEK-293T = test: Incucyte cell viability with HEK293T; conditions: human, 10 µM, compound concentration 10 uM
# Also: unitless GR value; below 1 slowed growth and below 0 cell loss.
SMILES,"Growth Rate (U2OS; 6 h, replicate number 2)","Growth Rate (U2OS; 12 h, replicate number 2)","Growth Rate (U2OS; 18 h, replicate number 2)","Growth Rate (U2OS; 24 h, replicate number 1)","Growth Rate (Fibroblast; 0 h, replicate number 1)","Growth Rate (Fibroblast; 0 h, replicate number 2)","Growth Rate (Fibroblast; 12 h, replicate number 2)","Growth Rate (Fibroblast; 18 h, replicate number 2)","Growth Rate (Fibroblast; 24 h, replicate number 1)","Growth Rate (Fibroblast; 24 h, replicate number 2)","Growth Rate (HEK-293T; 0 h, replicate number 1)","Growth Rate (HEK-293T; 0 h, replicate number 2)","Growth Rate (HEK-293T; 6 h, replicate number 1)","Growth Rate (HEK-293T; 18 h, replicate number 1)","Growth Rate (HEK-293T; 18 h, replicate number 2)","Growth Rate (HEK-293T; 24 h, replicate number 1)","Growth Rate (HEK-293T; 24 h, replicate number 2)","Growth Rate (HEK-293T; 6 h, replicate number 2)","Growth Rate (HEK-293T; 12 h, replicate number 1)","Growth Rate (HEK-293T; 12 h, replicate number 2)",further results
CC1(C)Cc2nc(C3CCCC3)c([C@@H](F)c3ccc(C(F)(F)F)cc3)c(C3CCCCC3)c2[C@@H](O)C1,0.48,0.54,0.82,0.87,-0.22,-0.59,0.89,0.82,0.38,0.95,0.94,-0.11,0.88,0.88,0.91,0.83,0.89,–,–,–,"Growth Rate (U2OS; 0 h, replicate number 2): 0.96; Growth Rate (Fibroblast; 6 h, replicate number 1): 0.71; Growth Rate (Fibroblast; 12 h, replicate number 1): 0.46; Growth Rate (Fibroblast; 18 h, replicate number 1): 0.51"
CCCCOc1c(C(=O)c2c(F)cc(C)cc2F)c[nH]c2nncc1-2,–,–,–,–,-1,–,–,–,–,–,-1,–,–,–,–,–,–,–,–,–,"Growth Rate (U2OS; 0 h, replicate number 1): -1"
CN(C(=O)CCOCCOCCOCCOCCNc1cccc2c1C(=O)N(C1CCC(=O)NC1=O)C2=O)[C@H]1CC[C@@]2(C)[C@@H](CC[C@@H]3[C@@H]2CC[C@]2(C)[C@@H](c4ccc5ccncc5c4)CC[C@@H]32)C1 (stereo not given in full),–,-0.46,–,0.92,-1,–,–,0.88,–,0.91,0.06,-0.85,0.57,0.76,0.79,0.88,0.76,1,0.77,0.73,"Growth Rate (U2OS; 6 h, replicate number 1): 0.52; Growth Rate (U2OS; 12 h, replicate number 1): 0.79; Growth Rate (U2OS; 18 h, replicate number 1): 0.82"
C=CC(=O)Nc1ccc(C(=O)Nc2n[nH]c3c2CN(C(=O)N[C@H](CN(C)C)c2ccccc2)C3(C)C)cc1,1,-0.41,0.97,0.76,–,-0.72,0.45,0.06,0.19,-0.02,-0.5,–,0.11,0.02,-0.27,0.03,-0.16,-0.51,0.02,-0.3,"Growth Rate (U2OS; 0 h, replicate number 1): -1; Growth Rate (U2OS; 18 h, replicate number 1): 0.84; Growth Rate (Fibroblast; 6 h, replicate number 2): 0.71; Growth Rate (Fibroblast; 12 h, replicate number 1): 0.56; Growth Rate (Fibroblast; 18 h, replicate number 1): 0.18"
Cc1c(CCC(=O)O)cccc1NC(=O)[C@@H](c1ccc(-c2cncc(Cl)c2)c(F)c1)C1CCCC1,–,–,–,–,–,–,0.3,0.9,–,0.87,-0.19,-0.54,–,–,–,–,–,0.98,–,–,"Growth Rate (U2OS; 0 h, replicate number 1): 0.68; Growth Rate (U2OS; 6 h, replicate number 1): 0.95; Growth Rate (U2OS; 12 h, replicate number 1): 0.73; Growth Rate (Fibroblast; 6 h, replicate number 2): -0.66"
CC(C)S(=O)(=O)c1ccccc1Nc1nc(N[C@@H]2CCCN(CCCCCCCNC(=O)COc3cccc4c3C(=O)N(C3CCC(=O)NC3=O)C4=O)C2)ncc1Cl (stereo not given in full),–,0.57,0.15,-0.23,-1,–,-0.49,-0.45,-0.23,-0.45,-1,–,-0.44,-0.31,-0.49,-0.24,-0.38,-0.73,-0.41,-0.59,"Growth Rate (U2OS; 0 h, replicate number 1): -1; Growth Rate (U2OS; 6 h, replicate number 1): 0.86; Growth Rate (U2OS; 12 h, replicate number 1): 0.25; Growth Rate (U2OS; 18 h, replicate number 1): 0.03; Growth Rate (U2OS; 24 h, replicate number 2): 0.04; Growth Rate (Fibroblast; 6 h, replicate number 1): -0.22; Growth Rate (Fibroblast; 6 h, replicate number 2): 0.14; Growth Rate (Fibroblast; 12 h, replicate number 1): -0.39; Growth Rate (Fibroblast; 18 h, replicate number 1): -0.33"
Cn1cc(-n2cnc3c(NCc4nc5cc(Cl)c(Cl)cc5[nH]4)nc(N4CCOCC4)nc32)cn1,-0.74,-0.72,-0.54,-0.09,-1,-0.31,-0.22,-0.06,0.54,0,-0.86,0.65,-0.17,-0.23,-0.48,-0.18,-0.36,-0.51,-0.21,-0.56,"Growth Rate (U2OS; 0 h, replicate number 1): -0.99; Growth Rate (U2OS; 0 h, replicate number 2): -0.97; Growth Rate (U2OS; 12 h, replicate number 1): 0.64; Growth Rate (U2OS; 18 h, replicate number 1): 0.1; Growth Rate (U2OS; 24 h, replicate number 2): -0.53; Growth Rate (Fibroblast; 6 h, replicate number 1): 0.08; Growth Rate (Fibroblast; 6 h, replicate number 2): -0.32; Growth Rate (Fibroblast; 12 h, replicate number 1): 0.37; Growth Rate (Fibroblast; 18 h, replicate number 1): 0.46"
O=C1Nc2nc(-c3c(O)cccc3OCC3CC3)cc([C@@H]3CCCNC3)c2CO1,0.44,0.47,0.79,0.83,–,-0.79,–,–,–,–,0.88,-0.36,0.72,0.78,–,0.93,–,0.83,0.62,0.47,"Growth Rate (U2OS; 0 h, replicate number 2): -0.52; Growth Rate (U2OS; 24 h, replicate number 2): 0.98"
O=C(O)C[C@H]1CCn2c1c(Sc1ccc(Cl)cc1)c1ccc(F)cc12,–,–,–,0.94,-1,–,0.4,0.97,0.89,0.83,0.01,-0.28,0.76,–,0.93,0.92,0.78,–,0.96,0.99,"Growth Rate (Fibroblast; 6 h, replicate number 2): 0.42"
Cc1nc2c(cc1F)c(-c1nnc3c(n1)NC(=O)C3(C)C)nn2Cc1cccc(F)c1F,0.58,0.84,0.95,–,-1,0.67,–,–,0.94,–,0.61,0.48,0.97,0.75,0.8,0.79,0.91,0.57,0.95,0.74,"Growth Rate (U2OS; 0 h, replicate number 2): 0.99; Growth Rate (U2OS; 6 h, replicate number 1): 0.9; Growth Rate (Fibroblast; 6 h, replicate number 1): 0.59; Growth Rate (Fibroblast; 18 h, replicate number 1): 0.85"
N#Cc1c(SCc2csc(-c3ccc(Cl)cc3)n2)nc(N2CCCC2)c(C#N)c1-c1ccc(OCCO)cc1,0.8,0.77,0.93,–,–,-1,–,–,–,–,-0.68,-0.75,–,–,–,–,–,–,–,–,"Growth Rate (U2OS; 0 h, replicate number 2): 0.14; Growth Rate (U2OS; 6 h, replicate number 1): 0.87; Growth Rate (U2OS; 24 h, replicate number 2): 0.97"
Cc1cc(S(=O)(=O)N2CC(C)(C)c3cc(-c4ccc(C(F)(F)F)cc4)ccc32)ccc1OCC(=O)O,0.68,0.54,0.8,–,-0.12,-0.87,–,–,–,–,0.52,-0.17,0.72,0.71,0.95,0.79,–,0.73,0.7,0.81,"Growth Rate (U2OS; 0 h, replicate number 2): -0.69; Growth Rate (U2OS; 6 h, replicate number 1): 0.69; Growth Rate (U2OS; 24 h, replicate number 2): 0.98; Growth Rate (Fibroblast; 6 h, replicate number 1): 0.92"
C[C@]12CC[C@@H]3c4ccc(C(N)=O)cc4CC[C@H]3[C@@H]1CC=C2c1cncc(F)c1,–,0.79,0.92,–,–,-0.92,–,–,–,–,-0.13,–,0.93,0.96,0.29,0.97,0.4,-0.72,0.9,0.31,"Growth Rate (U2OS; 0 h, replicate number 1): 0.64; Growth Rate (U2OS; 12 h, replicate number 1): 0.98; Growth Rate (U2OS; 24 h, replicate number 2): 1"
CC(C)S(=O)(=O)c1ccccc1Nc1nc(N[C@@H]2CCCN(CCCCCCCNC(=O)COc3cccc4c3C(=O)N(C3CCC(=O)N(C)C3=O)C4=O)C2)ncc1Cl (stereo not given in full),0.49,0.08,-0.14,-0.24,-1,–,-0.21,-0.36,-0.23,-0.36,-1,-0.99,-0.52,-0.33,-0.5,-0.27,-0.39,-0.7,-0.4,-0.61,"Growth Rate (U2OS; 0 h, replicate number 1): -1; Growth Rate (U2OS; 6 h, replicate number 1): 0.42; Growth Rate (U2OS; 12 h, replicate number 1): 0.11; Growth Rate (U2OS; 18 h, replicate number 1): -0.06; Growth Rate (U2OS; 24 h, replicate number 2): -0.2; Growth Rate (Fibroblast; 6 h, replicate number 1): 0.41; Growth Rate (Fibroblast; 6 h, replicate number 2): 0.48; Growth Rate (Fibroblast; 12 h, replicate number 1): -0.14; Growth Rate (Fibroblast; 18 h, replicate number 1): -0.33"
